{"source": "patent US8334255B2", "about": "“Peptide and treatment for HIV-1 infection” (Thomas Jefferson University, priority 2006, dated 2012)", "key": {"HIV-1NL4-3 Viruses [1]": {"tested_on": "HIV-1NL4-3 Viruses", "test": "Viral infectivity assay in human T lymphoblastoid H9 cell line, p24 antigen ELISA", "assay_type": "cell-based", "settings": "H9 cells, MOI 0.01, peptide 50 μM, compared to untreated cells or control peptide", "experimental": "A viral infectivity assay was performed in the presence or absence of the peptides of amino acid sequence SEQ ID NO:2 and SEQ ID NO:36, and the control peptide of amino acid sequence SEQ ID NO:35 using HIV-1NL4-3 viruses in H9 cells and assaying HIV-1 p24 antigen. The procedure was performed essentially as described by B. Yang, et al., J. Bio. Chem., 2003; 278(8), 6596-602, which describes the method as follows. H9 cells (1×10^6) are mixed with HIV-1NL4-3 viruses at a multiplicity of infection of 0.01. After incubation at 37° C. for 5 hours, the excess viruses were removed, and the cells are cultured in the presence of RPMI 1640 medium plus […] fetal bovine serum with or without the peptides at a concentration of 50 μM. Every 3-4 days the supernatants are harvested and refreshed. The effects of the peptides on viral infectivity are monitored by detecting the HIV-1 p24 antigen level in the cell culture supernatant via ELISA."}, "HIV-1IIIB virus": {"tested_on": "HIV-1IIIB virus", "test": "Low multiplicity of infection acute infection assay in MT-2 cells, reverse transcriptase assay", "settings": "for delay of the onset of virus production: MT-2 cells, RT assay"}, "HIV-1NL4-3 Viruses [2]": {"tested_on": "HIV-1NL4-3 Viruses", "test": "Viral infectivity assay in peripheral blood mononuclear cells, p24 Gag ELISA", "assay_type": "cell-based", "settings": "PBMCs infected with HIV-1NL4-3, MOI 0.1; p24 antigen level by ELISA", "experimental": "Various truncated analogues of the peptide of amino acid sequence SEQ ID NO:36 were prepared to determine the minimal peptide necessary to inhibit viral infectivity. The compounds were tested in a viral infectivity assay in which PBMCs were infected with HIV-1NLA-3 viruses (MOI: 0.1). The amounts of virus produced were monitored by detecting the HIV-1 p24 antigen. level in the cell culture using p24 Gag ELISA (Zeptometrics)."}, "H9 and MT-2 cells": {"tested_on": "H9 and MT-2 cells", "test": "Cellular uptake and intracellular localization of FITC-tagged peptide by fluorescence microscopy", "assay_type": "cell-based", "experimental": "The peptide of amino acid sequence SEQ ID NO:2 was synthesized with a C-terminal fluoroscein isothiocyanate (FTIC) tag. The FITC tag enables fluorescence microscopy of living cells in order to evaluate cellular uptake and intracellular localization of the peptide. Cultures of H9 and MT-2 cells were grown in media as recommended by the American Tissue Culture Collection (ATCC) and each culture was treated once in culture with of the FTIC-tagged peptide of the amino acid sequence SEQ ID NO:2. The cells were then photographed in the culture dish with an inverted fluorescence microscopy at various time points. […] The intracellular distribution was both punctate and diffuse in the cytoplasm but little or no FTIC-tagged peptide was observed within the nuclei of cells. This distribution was sustained for 24-48 hours and diminished by over 50% by 72 hours post-treatment.\nTo highlight the position of the nucleus, H9 and MT-2 cells treated with the FTIC-tagged peptide of the amino acid sequence SEQ ID NO:2 as described above, fixed with 2% paraformaldehyde, permeabilized with 0.4% Triton X-100 and stained with the DNA selective stain 4′,6-diamidino-2-phenylindole (DAPI)."}, "[3]": {"test": "Physicochemical properties of the peptide (isoelectric point, solubility)"}, "[4]": {"settings": "living H9 and MT-2 cells, single treatment"}}, "note": "Primed or numbered codes have the meaning given here. Ends that are not written are not given here. FITC′ = not defined here", "data": [{"substance": "YGRKKRRQRRRGSNQGGSPLPRSV [SEQ ID NO:36]", "values": [{"measurement": "effect on viral replication (HIV-1 p24 antigen in supernatant)", "setting": "HIV-1NL4-3 Viruses [1]", "value": "inhibited viral replication"}, {"measurement": "effect on virus production (in words)", "setting": "HIV-1IIIB virus; MOI 0.003, peptide 50 μM", "value": "did not appear to have any effect upon virus production"}, {"measurement": "delay of the onset of virus production", "setting": "HIV-1IIIB virus; MOI 0.01, peptide 50 μM", "value": "3 to 4", "unit": "days"}, {"measurement": "delay of the onset of virus production", "setting": "HIV-1IIIB virus; MOI 0.03, peptide 50 μM", "value": "2 to 3", "unit": "days"}, {"measurement": "delay of the onset of virus production", "setting": "HIV-1IIIB virus; MOI 0.1, peptide 50 μM", "value": "4 to 5", "unit": "days"}]}, {"substance": "YGRKKRRQRRRGSNQGGSPLPRS [SEQ ID NO: 75]", "values": [{"measurement": "Activity (inhibiting HIV-1NL4-3 viruses in viral infectivity assay)", "setting": "HIV-1NL4-3 Viruses [2]", "value": "Inactive"}]}, {"substance": "FTIC-tagged peptide of the amino acid sequence SEQ ID NO:2: peptide of amino acid sequence SEQ ID NO:2 synthesized with a C-terminal fluoroscein isothiocyanate (FTIC) tag (YGRKKRRQRRRGQGGSPLPRSV-{FITC′})", "values": [{"measurement": "intracellular localization (fixed cells, DAPI nuclear stain)", "setting": "H9 and MT-2 cells; H9 and MT-2 cells, 24 h after a single treatment", "value": "localized in the cytoplasm but was not present in the nucleus"}, {"measurement": "diminution of intracellular peptide distribution", "setting": "H9 and MT-2 cells; by 72 hours post-treatment", "value": "over 50%"}, {"measurement": "time after which fluorescence within cells was detected", "setting": "H9 and MT-2 cells; [4]", "value": 5, "unit": "ninutes"}, {"measurement": "time for which the intracellular distribution was sustained", "setting": "H9 and MT-2 cells; [4]", "value": "24 to 48", "unit": "h"}, {"measurement": "time until intracellular localization was apparent in all cells", "setting": "H9 and MT-2 cells; [4]", "value": "≤ 30", "unit": "min"}, {"measurement": "peptide observed within the nuclei of cells", "setting": "H9 and MT-2 cells; living H9 and MT-2 cells, distribution punctate and diffuse in the cytoplasm", "value": "little or no"}]}, {"substance": "YGRKKRRQRRRGGGSPLPRSV [SEQ ID NO: 74]", "values": [{"measurement": "Activity (inhibiting HIV-1NL4-3 viruses in viral infectivity assay)", "setting": "HIV-1NL4-3 Viruses [2]", "value": "Inactive"}]}, {"substance": "YGRKKRRQRRRGQGGSPLPRSV [SEQ ID NO:2]", "values": [{"measurement": "isoelectric point (pI)", "setting": "[3]", "value": 12.39}, {"measurement": "solubility", "setting": "[3]", "value": "~1000", "unit": "µg/mL"}]}, {"substance": "YGRKKRRQRRRGDLGEQHFKGLVL [SEQ ID NO:35]", "values": [{"measurement": "effect on virus production (in words)", "setting": "HIV-1IIIB virus; MOI 0.003, peptide 50 μM", "value": "somewhat enhance virus production"}, {"measurement": "effect on virus production (in words)", "setting": "HIV-1IIIB virus; MOI 0.01, peptide 50 μM", "value": "did not inhibit virus production"}, {"measurement": "effect on virus production (in words)", "setting": "HIV-1IIIB virus; MOI 0.03, peptide 50 μM", "value": "did not inhibit virus production"}, {"measurement": "effect on virus production (in words)", "setting": "HIV-1IIIB virus; MOI 0.1, peptide 50 μM", "value": "did not inhibit virus production"}]}]}
